Laboratory results reported in EP1207395A1, “METHOD FOR MEASURING KINASE ACTIVITY OF CYCLIN/CDK COMPLEX” (Medical & Biological Laboratories Co., Ltd., priority 1999, dated 2001).

How the values were obtained:
cyclin D1/CDK4 complex = target: T1, cyclin D1/CDK4 complex (Homo sapiens, UniProt P11802); experiment: ELISA method, inhibitory effect on cyclin D1/CDK4 complex; assay type: biochemical; details: for OD levels (inhibitory effect): RB301 substrate, 100 µM ATP, Figs. 5 and 9
T1 construct: 6xHis (N); made in house; host or cells: Sf9 insect cells (baculovirus)
Procedure: (§1) Clone 1C12 (specific to Thr356), clone 4E4 (specific to Ser612), and clone 2C4 (specific to Ser780) were used as the anti-phosphorylated RB monoclonal antibodies. Each anti-phosphorylated RB monoclonal antibody was diluted to a concentration of 10 µg/ml in PBS, and 100 µl of the diluted solution was added to each well of the plate followed by incubating at 4 °C for 15 hours. After removing the antibody solution, the reaction product in each well was blocked at 4°C for 24 hours in a PBS solution (5% sucrose, 0.1% NaN3) containing 2.5% of BSA. The plate was subjected to measurements after airdrying.
The RB amino acid sequence 301aa-928aa was expressed as a GST fusion protein in Escherichia coli, and the protein (RB301) purified using glutathione Sepharose and phosho-Cellulose columns (P11) was used as the substrate. Cyclin D1/CDK4, cyclin A/CDK2, cyclin E/CDK2, and cyclin B/CDK1, respectively, were expressed in the sf9 cells using baculovirus, and were purified using a cobalt column and phospho-Cellulose column in order to use them as the cyclin/CDK complexes.
(§2) RB301 (10µg/ml), 100µM ATP, and respective Cyclin/CDK were added to the phosphate buffer (50 mM HEPES, 0.05% Triton X, 15 mM MgCl2, 2 mM EGTA, 200 µg/ml BSA) (final reaction volume of 180 µl), and was reacted for 30 minutes at 30°C. The reaction was stopped by adding 180 µl of PBS (10% skim milk, 350 mM NaCl, 50 mM EDTA) to each assay system.
After completing the phosphorylation reaction, 100 µl of each of the reaction solutions was added to the antibody sensitization plate, which was incubated at room temperature for 1 hour (primary reaction). After washing with PBS [washing solution: PBS (500 mM NaCl, 0.1% Tween 20)] five times using a wash-bottle, 100 µl of anti-GST polyclonal antibody solution (0.5 µg/ml) was added to each well of the microplate, followed by incubation at room temperature for 1 hour (secondary reaction). After washing with PBS [washing solution: PBS (500 mM NaCl, 0.1% Tween 20)] five times using a wash-bottle, 100 µl of HRP labeled anti-rabbit IgG antibody solution (20,000-fold dilution) was added to each well of the microplate, followed by incubation at room temperature for 30 minutes (tertiary reaction). Then, the reaction solution was colored (coloring reaction) at room temperature for 30 minutes using TMB (tetramethylbentidine).

CDK4 [1] = target: T2, CDK4 (Homo sapiens, UniProt P11802); details: reported in the literature (Meijer et al. 1997); cited from earlier work
MEK = details: inhibitor to MEK; nominal value of commercially available reagent; cited from earlier work
CDK4 [2] = target: T2, CDK4; details: against CDK4; nominal value; cited from earlier work
cyclin A/CDK2 complex = target: T3, cyclin A/CDK2 complex (Homo sapiens, UniProt P24941); experiment: ELISA method, inhibitory effect on cyclin A/CDK2 complex; assay type: biochemical; details: RB301 substrate, 100 µM ATP, Figs. 3 and 7
T3 construct: 6xHis (N); made in house; host or cells: Sf9 insect cells (baculovirus)
Procedure: as §1
(§3) Cyclin D1/CDK4, cyclin A/CDK2, cyclin E/CDK2, and cyclin B/CDK1, respectively, were expressed in the sf9 cells using baculovirus, and were purified using a cobalt column and phospho-Cellulose column in order to use them as the cyclin/CDK complexes.
as §2
(§4) After completing the phosphorylation reaction, 100 µl of each of the reaction solutions was added to the antibody sensitization plate, which was incubated at room temperature for 1 hour (primary reaction). […]

cdk2 = cdk2 (Homo sapiens, UniProt P24941); details: against CDK2; nominal value; cited from earlier work
cyclin E/CDK2 complex = target: T4, cyclin E/CDK2 complex (Homo sapiens, UniProt P24941); experiment: ELISA method, inhibitory effect on cyclin E/CDK2 complex; assay type: biochemical; details: RB301 substrate, 100 µM ATP, Figs. 4 and 8
T4 construct: 6xHis (N); made in house; host or cells: Sf9 insect cells (baculovirus)
Procedure: as §1, §3, §2, §4

cyclin B/CDK1 complex = target: T5, cyclin B/CDK1 complex (Homo sapiens, UniProt P06493); assay type: biochemical; details: ELISA method; RB301 substrate, 100 µM ATP; Figs. 2 and 6
T5 construct: 6xHis (N); made in house; host or cells: Sf9 insect cells (baculovirus)
Procedure: as §1, §3, §2, §4

PKC = details: against PKC; nominal value of commercially available reagent; cited from earlier work

T1 sequence (P11802 whole entry): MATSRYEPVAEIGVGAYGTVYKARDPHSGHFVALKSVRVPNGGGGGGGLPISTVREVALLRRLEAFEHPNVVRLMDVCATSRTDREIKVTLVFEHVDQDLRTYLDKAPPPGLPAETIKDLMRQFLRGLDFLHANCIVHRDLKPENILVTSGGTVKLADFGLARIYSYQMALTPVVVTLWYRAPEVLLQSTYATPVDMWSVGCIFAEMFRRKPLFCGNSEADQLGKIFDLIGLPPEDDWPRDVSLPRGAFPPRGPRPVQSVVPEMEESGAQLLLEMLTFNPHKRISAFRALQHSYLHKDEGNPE
T1 sequence (P24385 whole entry partner): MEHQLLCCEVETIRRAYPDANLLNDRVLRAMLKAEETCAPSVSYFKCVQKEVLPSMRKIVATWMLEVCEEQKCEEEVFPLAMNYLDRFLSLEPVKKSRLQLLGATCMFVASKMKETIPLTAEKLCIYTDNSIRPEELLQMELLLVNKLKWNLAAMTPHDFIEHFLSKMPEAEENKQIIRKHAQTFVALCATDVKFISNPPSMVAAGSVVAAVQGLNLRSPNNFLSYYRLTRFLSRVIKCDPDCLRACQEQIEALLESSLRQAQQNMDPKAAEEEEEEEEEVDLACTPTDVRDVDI
T2 sequence (P11802 whole entry, species assumed): as the sequence (P11802 whole entry) above
T2 sequence (P24385 whole entry partner, species assumed): as the sequence (P24385 whole entry partner) above
T5 sequence (P06493 whole entry): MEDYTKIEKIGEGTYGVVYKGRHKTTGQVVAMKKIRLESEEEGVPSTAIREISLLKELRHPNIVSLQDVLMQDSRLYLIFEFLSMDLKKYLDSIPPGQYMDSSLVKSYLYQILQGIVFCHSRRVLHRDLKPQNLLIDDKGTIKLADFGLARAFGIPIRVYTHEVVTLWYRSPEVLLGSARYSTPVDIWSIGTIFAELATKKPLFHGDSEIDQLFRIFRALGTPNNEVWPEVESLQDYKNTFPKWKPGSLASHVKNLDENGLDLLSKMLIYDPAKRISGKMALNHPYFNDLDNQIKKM
T5 sequence (P14635 whole entry partner): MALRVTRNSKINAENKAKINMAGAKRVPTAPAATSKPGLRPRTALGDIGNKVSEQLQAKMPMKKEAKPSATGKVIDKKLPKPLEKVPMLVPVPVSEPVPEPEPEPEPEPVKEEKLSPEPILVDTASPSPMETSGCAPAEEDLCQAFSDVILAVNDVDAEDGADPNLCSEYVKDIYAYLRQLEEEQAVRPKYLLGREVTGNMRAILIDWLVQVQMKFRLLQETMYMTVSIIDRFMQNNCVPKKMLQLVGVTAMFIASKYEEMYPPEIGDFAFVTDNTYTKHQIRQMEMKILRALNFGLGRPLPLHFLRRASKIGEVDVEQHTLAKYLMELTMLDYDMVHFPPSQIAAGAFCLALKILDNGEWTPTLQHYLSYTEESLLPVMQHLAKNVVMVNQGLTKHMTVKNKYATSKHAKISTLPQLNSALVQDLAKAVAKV

Cn1cnc2nc(NCCO)nc(NCc3ccccc3)c21 [Olomoucine-isomer]
OD levels (inhibitory effect) (cyclin D1/CDK4 complex): almost no decrease in the OD value

CC[C@H](CO)Nc1nc(NCc2ccccc2)c2ncn(C(C)C)c2n1 [Roscovitine]
inhibitory effect on cdk4 (CDK4 [1]): remarkably weak inhibitory effect
inhibitory effect on cyclin D1/CDK4 compared with the other three cyclin/CDK complexes (cyclin D1/CDK4 complex): weaker than those on the other three cyclin/CDK complexes
OD levels (inhibitory effect) (cyclin D1/CDK4 complex): decreased in a inhibitor concentration-dependent manner

N#CC(=C(/N)Sc1ccccc1N)/C(C#N)=C(\N)Sc1ccccc1N [U0126]
IC50 (MEK): 55 nM
IC50 (CDK4 [2]): > 10 µM
OD levels (inhibitory effect) (cyclin A/CDK2 complex): almost no decrease in the OD value
IC50 (cdk2): > 10 µM
OD levels (inhibitory effect) (cyclin D1/CDK4 complex): almost no decrease in the OD value
OD levels (inhibitory effect) (cyclin E/CDK2 complex): almost no decrease in the OD value

COC(=O)[C@@]1(O)C[C@H]2O[C@]1(C)n1c3ccccc3c3c4c(c5c6ccccc6n2c5c31)C(=O)NC4 [K252a]
OD levels (inhibitory effect) (cyclin B/CDK1 complex): decreased in a inhibitor concentration-dependent manner
Ki (PKC): 25 nM
OD levels (inhibitory effect) (cyclin A/CDK2 complex): decreased in a inhibitor concentration-dependent manner
OD levels (inhibitory effect) (cyclin D1/CDK4 complex): decreased in a inhibitor concentration-dependent manner
OD levels (inhibitory effect) (cyclin E/CDK2 complex): decreased in a inhibitor concentration-dependent manner
